Where a SMILES comes first, the peptide text is derived from it. Bridges are numbered along the chain shown (N, C = ends). [ ]: non-standard residue; d: D form. Pen = CC(C)(S)[C@H](N)C(=O)O; hCys = N[C@@H](CCS)C(=O)O
Assays:
Assay in all cases: cAMP accumulation via β-galactosidase (β-Gal) reporter system (cAMP Hunter GPCR assay)
Type in all cases: cell-based
MC-5R = MC-5R (Homo sapiens, UniProt P33032); settings: for Selectivity Ratios MC4R/MC5R: ratio of EC-50 values, MC-5R versus MC-4R
Description: (§1) cAMP Accumulation Measurement via a β-Galactosidase (β-Gal) Reporter System
(§2) A chemiluminescence readout system that uses an enzyme fragment complementation (EFC) system with β-galactosidase (β-Gal) as the functional reporter system was used. This assay system for various melanocortin receptor systems is commercially available (cAMP Hunter GPCR assay system, Discoverx Corp, Fremont, Calif.). This assay utilizes the β-Gal enzyme that is split into two complementary portions; EA for Enzyme Acceptor and ED for Enzyme Donor. In the assay, the ED portion fused to cAMP is made to compete with cAMP generated by cells for binding to a cAMP-specific antibody. The EA is then added to form active β-Gal with any unbound ED-cAMP. This active enzyme then converts a chemiluminescent substrate to generate an output signal that is recorded on a standard microplate reader. Briefly, 10000 cells per well are plated overnight and each well (cells incubated with 10 μl assay buffer) is then incubated with 4X serial concentration of the test compound in the cell assay buffer (5 μL) and cAMP antibody reagent (5 μL) for 30 min at 37° C. The cell lysis buffer (20 μL) containing ED-cAMP coupled enzyme fragment and the reporter substrate (Emerald II-Galacton Star, 5:1) is then added and incubated for 60 min at room temperature. Next, 20 μL of EA β-Gal fragment reagent is added. After further incubation for 120 min at room temperature, the chemiluminescence is measured by a plate reader (Envision).

MC-1R = MC-1R (Homo sapiens, UniProt Q01726); settings: ratio of EC-50 values, MC-1R versus MC-4R
Sequence of MC-1R (Q01726 whole entry): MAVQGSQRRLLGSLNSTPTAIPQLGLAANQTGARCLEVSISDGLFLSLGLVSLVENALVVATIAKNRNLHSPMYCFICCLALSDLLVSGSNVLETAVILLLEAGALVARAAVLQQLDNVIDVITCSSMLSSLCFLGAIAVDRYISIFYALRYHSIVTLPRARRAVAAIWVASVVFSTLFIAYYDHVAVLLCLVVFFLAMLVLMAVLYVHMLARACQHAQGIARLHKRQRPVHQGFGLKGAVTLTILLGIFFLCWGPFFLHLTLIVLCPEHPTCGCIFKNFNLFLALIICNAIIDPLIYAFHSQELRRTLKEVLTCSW
Description: as §1
as §2, with “This active enzyme then converts a chemiluminescent substrate to generate an output signal that is recorded on a standard microplate reader.” left out

MC-3R = MC-3R (Homo sapiens, UniProt P41968); settings: for EC50: cAMP agonist readout, MC-3R, read-out: EC-50 (nM) MC-3R; for Selectivity Ratios MC4R/MC3R: ratio of EC-50 values, MC-3R versus MC-4R
Sequence of MC-3R (P41968 whole entry): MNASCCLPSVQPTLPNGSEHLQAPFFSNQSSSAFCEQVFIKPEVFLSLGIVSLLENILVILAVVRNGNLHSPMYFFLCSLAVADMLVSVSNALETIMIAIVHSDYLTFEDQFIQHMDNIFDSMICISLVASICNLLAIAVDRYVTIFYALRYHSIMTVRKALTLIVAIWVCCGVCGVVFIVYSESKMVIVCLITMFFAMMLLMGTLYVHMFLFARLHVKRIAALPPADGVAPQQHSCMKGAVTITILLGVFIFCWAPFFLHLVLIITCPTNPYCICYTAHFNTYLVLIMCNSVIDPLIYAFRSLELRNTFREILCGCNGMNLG
Description: as §1
as §2, with “This active enzyme then converts a chemiluminescent substrate to generate an output signal that is recorded on a standard microplate reader.” left out

Sequence of MC-5R (P33032 whole entry): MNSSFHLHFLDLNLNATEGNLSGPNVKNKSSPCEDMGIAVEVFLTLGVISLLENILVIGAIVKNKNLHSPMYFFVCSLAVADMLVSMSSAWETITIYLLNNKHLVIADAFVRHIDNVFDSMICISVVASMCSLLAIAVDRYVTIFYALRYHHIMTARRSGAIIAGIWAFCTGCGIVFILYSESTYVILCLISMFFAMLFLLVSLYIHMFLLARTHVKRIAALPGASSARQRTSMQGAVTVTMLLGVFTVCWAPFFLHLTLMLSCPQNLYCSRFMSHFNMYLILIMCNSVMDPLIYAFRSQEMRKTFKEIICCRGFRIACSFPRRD

| Selectivity Ratios MC4R/MC5R (MC-5R) | Selectivity Ratios MC4R/MC1R (MC-1R) | EC50 (MC-3R) | Selectivity Ratios MC4R/MC3R (MC-3R) | SMILES | EC50 (MC-5R; cAMP agonist readout, MC-5R, read-out: EC-50 (nM) MC-5R) |
| --- | --- | --- | --- | --- | --- |
| 916.48 | 123.06 | > 3000 nM | >1615.55 | CC(=O)N[C@@H](CCCNC(=N)N)C(=O)N[C@H]1CCSSC(C)(C)[C@@H](C(N)=O)NC(=O)[C@H](Cc2c[nH]c3ccccc23)NC(=O)[C@H](CCCNC(=N)N)NC(=O)[C@@H](Cc2ccccc2)NC(=O)[C@H](CO)NC1=O [Compound 001556C, Ac-Arg-(hCys-Ser-D-Phe-Arg-Trp-Pen)-NH2] (Ac-R[hCys]S[dF]RW[Pen]-NH2; disulfide 2-7) | – |
| – | – | – | – | CC(=O)N[C@@H](CCCNC(=N)N)C(=O)N[C@H]1CSSC[C@@H](C(N)=O)NC(=O)[C@H](Cc2c[nH]c3ccccc23)NC(=O)[C@H](CCCNC(=N)N)NC(=O)[C@@H](Cc2ccccc2)NC(=O)[C@H](Cc2c[nH]cn2)NC(=O)[C@@H](C)NC1=O [RM-493, reference compound] | 1680 nM |
| 459.17 | 146.75 | > 3000 nM | >1872.97 | CC(=O)N[C@@H](CCCNC(=N)N)C(=O)N[C@H]1CCSSC(C)(C)[C@@H](C(N)=O)NC(=O)[C@H](Cc2c[nH]c3ccccc23)NC(=O)[C@H](CCCNC(=N)N)NC(=O)[C@@H](Cc2ccccc2)NC(=O)[C@H](CC(N)=O)NC1=O [Compound 001554C, Ac-Arg-(hCys-Asn-D-Phe-Arg-Trp-Pen)-NH2] (Ac-R[hCys]N[dF]RW[Pen]-NH2; disulfide 2-7) | – |
| 101.41 | 35.57 | – | 1.75 | CC(=O)N[C@@H](CCCNC(=N)N)C(=O)N[C@H]1CCC(=O)NC[C@@H](C(N)=O)NC(=O)[C@H](Cc2c[nH]c3ccccc23)NC(=O)[C@H](CCCNC(=N)N)NC(=O)[C@@H](Cc2ccccc2)NC(=O)[C@H](CCC(N)=O)NC1=O [Compound 001576C, Ac-Arg-(Glu-Gln-D-Phe-Arg-Trp-Dpr)-NH2] | – |
| 639.81 | 244.35 | – | 2.68 | CC(=O)N[C@@H](CCCNC(=N)N)C(=O)N[C@H]1CCSSC(C)(C)[C@@H](C(N)=O)NC(=O)[C@H](Cc2c[nH]c3ccccc23)NC(=O)[C@H](CCCNC(=N)N)NC(=O)[C@@H](Cc2ccccc2)NC(=O)[C@H](CCC(N)=O)NC1=O [Compound 001555C, Ac-Arg-(hCys-Gln-D-Phe-Arg-Trp-Pen)-NH2] (Ac-R[hCys]Q[dF]RW[Pen]-NH2; disulfide 2-7) | – |
| 1846.64 | 465.77 | > 3000 nM | >2705.95 | CC(=O)N[C@@H](CCCNC(=N)N)C(=O)N[C@H]1CCSSC(C)(C)[C@@H](C(N)=O)NC(=O)[C@H](Cc2c[nH]c3ccccc23)NC(=O)[C@H](CCCNC(=N)N)NC(=O)[C@@H](Cc2ccccc2)NC(=O)[C@H]([C@@H](C)O)NC1=O [Compound 001574C, Ac-Arg-(hCys-Thr-D-Phe-Arg-Trp-Pen)-NH2] (Ac-R[hCys]T[dF]RW[Pen]-NH2; disulfide 2-7) | – |

— patent US20220226425A1, “METHOD OF TREATING MELANOCORTIN-4 RECEPTOR PATHWAY-ASSOCIATED DISORDERS” (RHYTHM PHARMACEUTICALS, INC., priority 2015, published 2022)
